Source: PubChem BioAssay AID179 (DTP/NCI, 2004)
Values joined by “and” are separate entries in the source; they are usually repeats but may differ in a detail not shown here. Equal values may be shown once. Active and inactive are the calls of the source.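 Rule for the calls: active = compounds giving half or more protection of infected cells from virus-caused growth loss, again on retest; inactive = the rest.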

Test system: CEM cells HIV-1 protection, formazan growth assay
Experiment: NCI AIDS Antiviral Assay
Details: for IC50: measured here: growth of uninfected CEM cells
In short: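 Five concentrations of each compound were applied to infected and uninfected human CEM cells. Protection from HIV-1 was judged from growth measured with a soluble formazan assay.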

SMILES	EC50 [µM]	IC50	outcome
NC(N)=NS(=O)(=O)c1ccc(NC(=O)c2ccc(Cl)c3c(Nc4ccc(S(=O)(=O)N=C(N)N)cc4)c4ccccc4nc23)cc1	> 28.2	> 28.2 µM	–
CC(C)(C)C1CCC2(CC1)CO2 (centres undefined)	> 200	195 µM	–
C/C(=N\O)c1ccccc1	–	–	inactive
O=C1c2ccccc2-c2nc3ccccc3nc21	> 6.17	> 6.17 µM	–
CCOP(=O)(OCC)C(Nc1cccc(F)c1)c1ccccc1 (centres undefined)	> 200	123 µM	–
CC(=N\N=C(N)N)/C(N=Nc1ccc(S(N)(=O)=O)cc1)=N\N=C(N)N	> 200	1.58 µM	–
Cc1nc2nn(Cc3ccccc3)cc2c(=O)o1	> 1020	57.5 µM	–
COC1/C=C\OC2(C)Oc3c(C)c(O)c4c(O)c(c(/C=N/N(Cc5ccccc5)C56CC7CC(CC(C7)C5)C6)c(O)c4c3C2=O)NC(=O)/C(C)=C\C=C\C(C)C(O)C(C)C(O)C(C)C(OC(C)=O)C1C (centres undefined)	> 200	6.92 µM	–
CCC[N+](C)(C)CCCNC(=O)c1c(O)c2ccccc2[nH]c1=O	178	182 µM	–
CSC1=C(C(=O)N(COCC[Si](C)(C)C)c2ccccc2Br)CCC(C(C)(C)C)C1 (centres undefined)	> 200	17.8 µM	–
NNC(=O)c1nnn(CCc2ccccc2)c1C(=O)NN	> 200	> 200 µM	–
CCc1n[nH]c(=O)n1NC(=O)CCCC(=O)O	> 200	> 200 µM	–
CC1=C(O)/C(=C/C(C)CCC/C(C)=C/C=C/C(C)CCCc2ccoc2)OC1=O (centres undefined)	–	–	inactive
O=C(O)CNCc1c2ccccc2[n+]([O-])c2ccccc12	–	–	inactive
CC(=O)OCc1cccc(O)c1C(=O)CCC=C(C)C	> 200	148 µM	–
CN1CCN(CCCN2CC(=O)N3Cc4ccccc4CN3C(=O)C2)CC1	> 200	> 200 µM	–
S=C1NC(c2ccccc2)Nc2ccccc21 (centres undefined)	> 107	> 107 µM	–
COc1ccc(C2C3=C(COC3=O)Oc3cc4c(cc32)OCO4)c(OC)c1 (centres undefined)	> 200	12.3 µM	–
O=C(C1OC1c1ccc(F)cc1)C12CC3CC(CC(C3)C1)C2 (centres undefined)	> 200	12 µM	–
CC12OC3(C)OC(=O)C(c4ccccc4)(O1)C3(C)O2 (centres undefined)	–	–	inactive
CCOC(=O)C1CSCCSC1	> 174	> 174 µM	–

SMILES	EC50 [µM]	IC50	outcome
O=[N+]([O-])c1cccnc1SSc1ncccc1[N+](=O)[O-]	> 200	97.7 µM	–
Cc1ccc(C2NC(=O)N3C(c4ccc(C)cc4)NC(=O)N23)cc1 (centres undefined)	> 200	30.2 µM	–
Cc1ccc(NC(=O)C(=O)CC(=O)c2c(C)n([O-])c3ccccc3[n+]2=O)cc1C	> 64.6	> 64.6 µM	–
Cc1ccc(S(=O)(=O)Oc2nc3ccccc3nc2N(S(=O)(=O)c2ccc(C)cc2)S(=O)(=O)c2ccc(C)cc2)cc1	> 200	17.4 µM	–
COc1ccc(-n2cnnc2-c2nsc3ccccc23)cc1	> 85.1	55 µM	–
CC(C)CCCC(C)[C@H]1CC[C@H]2[C@@H]3CC[C@H]4C[C@@H](CCC=C(c5cc(Cl)c(O)c(C(=O)O)c5)c5cc(Cl)c(O)c(C(=O)O)c5)CC[C@]4(C)[C@H]3CC[C@]12C (some centres undefined) (tested in a mixture with another compound)	> 100	40.7 µM	–
CCOC(=O)Cn1c(=O)[nH]c(=O)c2c1ncn2Cc1ccccc1	> 550	513 µM	–
CN(C)CCNC(=O)c1cccc(C(C)(C)C)c1[N+](=O)[O-]	> 200	135 µM	–
CCCCCCCCCCCCCCCCC(C(=O)O)S(=O)(=O)O (centres undefined)	> 200	112 µM	–
CN(C)c1cc(CNCCSC(C)(C)C)nc(CNCCSC(C)(C)C)c1	> 200	4.57 µM	–
Cc1cc2nc3n[nH]c(N)c3nc2cc1C	> 200	> 200 µM	–
O=C1OCCN1N1C(=O)CC2(CCN(Cc3ccccc3)CC2)C1=O	> 200	> 200 µM	–
CCCc1cc(=O)oc2c3c(cc(OC(C)CI)c12)O[C@H](C)[C@@H](C)C3=O (some centres undefined)	> 87.1	21.4 µM	–
CCC(C(=O)C(=O)OC)P1(=O)OC(C)(C)CN1C(C)(C)C (centres undefined)	> 200	> 200 µM	–
CCOCN1COCN(C)C1=O	> 1450	> 1450 µM	–
CC1(C)OC(=O)C(=C2CC(c3ccccc3)c3ccccc32)C(=O)O1 (centres undefined)	–	–	inactive
O=C1c2cc3c(cc2CC12Cc1cc4c(cc1C2=O)CCC4)CCCC3 (centres undefined)	> 200	> 200 µM	–
Cc1cc(C)n2c(-c3ccccc3)c(C)cc2n1	> 110	17.4 µM	–
CC(=O)NC(CCSSCCC(NC(C)=O)C(=O)ON1C(=O)CCC1=O)C(=O)ON1C(=O)CCC1=O (centres undefined)	> 200	> 200 µM	–
N.N.N.N.O=S([O-])[O-].[Co+3].[N-]=[N+]=[N-]	–	–	inactive
COC(=O)C(Cc1ccccc1)NC(=O)C(CNC(=O)OCc1ccccc1)C(=O)OCc1ccccc1 (centres undefined)	> 200	> 200 µM and 148 µM	–

SMILES	EC50 [µM]	IC50	outcome
O=C(/C=C\c1ccccc1)Oc1ccc(/C=C2\CCC/C(=C\c3ccc(OC(=O)/C=C\c4ccccc4)cc3)C2=O)cc1	> 100	> 100 µM	–
COc1ccc(CC2C(=O)NC(C)C(=O)N(C)C3C(=O)N(C)C(Cc4ccc(O)c(c4)Oc4ccc(cc4)C3O)C(=O)NC(C)C(=O)NC(C)C(=O)N2C)cc1 (centres undefined)	> 0.2	0.0631 µM	–
CC(=O)NC1=NC(=O)/C(=C/c2ccc(Cl)cc2Cl)N1C	–	–	inactive
COC(=O)C1=C(C)N(NC(=O)c2cccc(Cl)c2)C(C)(O)C12CCOC2=O (centres undefined)	> 631	275 µM	–
CS(=O)(=O)OCCN1CCC2(CC1)SSC1(CCN(CCOS(C)(=O)=O)CC1)S2	> 200	28.2 µM	–
CCOP(=O)(OCC)OC1c2[nH]ccc2-c2cc(C(=O)OC)[nH]c2C1OC (centres undefined)	> 200	102 µM	–
C=CCOc1ccc(C2c3c([nH][nH]c3=O)CC(C)(O)C2C(=O)OC)cc1OC (centres undefined)	> 200	> 200 µM	–
CSc1cc(Cl)c(C)cc1S(=O)(=O)n1cc[nH]c1=O	> 200	> 200 µM	–
C[C@H](CCC(=O)O)[C@H]1CC[C@H]2[C@@H]3[C@@H](O)C[C@@H]4C[C@H](O)CC[C@]4(C)[C@H]3C[C@H](O)[C@]12C	> 200	> 200 µM	–
O=C(/C=C/c1ccccc1Cl)c1ccccc1	> 21.4	14.5 µM	–
CSC(=NCCc1c[nH]c2ccccc12)NC#N	> 200	> 200 µM	–
NC(CSS(=O)(=O)O)=NCC12CC3CC(CC(C3)C1)C2	> 200	32.4 µM	–
CC(=O)Nc1ccc(C(=O)NN2C(=O)CSC2c2ccccc2)cc1 (centres undefined)	> 72.4	> 72.4 µM	–
CC1(CO)COS(=O)OC1 (centres undefined)	> 214	> 214 µM	–
Cc1nn(C)c(=O)[nH]c1=O	> 1780	> 1780 µM	–
COC(=O)/C(=N\NC(=O)C[N+](C)(C)C)C(C(=O)OC)C(=O)C(=O)Nc1ccccc1C(N)=O (centres undefined)	> 501	> 501 µM	–
COc1ccc(C(=O)/C=C/c2ccc3c(c2)OCO3)c(O)c1	> 200	81.3 µM	–
CCC(COC(/C=C1/C=CC(=O)O1)COC(=O)c1ccccc1)c1ccccc1 (centres undefined)	> 115	77.6 µM	–
CC(C)(C)OC(=O)N[C@H]1CC(O)c2ccccc2N(CC(=O)O)C1=O (some centres undefined)	> 251	> 251 µM	–
c1ccc(C2=NCCN2)c(C2=NCCN2)c1	> 200	> 200 µM	–
S=c1oc(CCCCCCCCc2nn(CNc3ccccc3)c(=S)o2)nn1CNc1ccccc1	> 200	> 200 µM	–

SMILES	EC50 [µM]	IC50	outcome
CCCCCCCCCCCCCCCCCCOCC(O)COP(=O)(O)OCC1OC(n2cc(C)c(=O)[nH]c2=O)CC1N=[N+]=[N-] (centres undefined)	> 100	31.6 µM	–
Cc1ccc(C)c(NC(=O)CC2Sc3ccccc3NC2=O)c1 (centres undefined)	> 30.2	> 30.2 µM	–
Cc1ccc(Oc2cc(C)ccc2P(=O)(O)O)cc1	> 200	138 µM	–
O=C(NCc1ccccc1)c1cc2cc(O)c(O)cc2cn1	> 200	5.13 µM and > 8.32 µM	–
COc1ccc(/C=N/Nc2nnc3c(n2)[nH]c2ccc(Br)cc23)cc1	> 200	> 200 µM	–
O=C(OCCOCCO)c1ccccc1-c1c2cc(I)c(=O)c(I)c-2oc2c(I)c(O)c(I)cc12	> 200	5.13 µM	–
O=C1N[C@H]2c3c(Cl)sc(Cl)c3/C(=N/O)[C@H]2O1	> 200	95.5 µM	–
CCOC1CN=C(Nc2cccc3ccccc23)S1 (centres undefined)	> 200	162 µM	–
O=C(Nc1nc(=S)[nH][nH]1)C(=O)C1C(=O)Nc2ccccc2S1=O (centres undefined)	> 372	> 372 µM	–
Cc1ccc(NC(=O)/C(CC(=O)c2c[n+](=O)c3ccccc3n2O)=N\NC(=O)C[n+]2ccccc2)cc1	> 43.7	> 43.7 µM	–
CC(NC(=O)C(C)NC(=O)C(N)CCP(C)(=O)O)C(=O)O (centres undefined)	–	–	inactive
Cn1c(=O)c2c(nc3n2CCCC(=O)N3CC(O)CCl)n(C)c1=O (centres undefined)	> 200	85.1 µM	–
COc1cc2c(cc1O)CC1c3c(cc(O)c(OC)c3-2)CCN1C (centres undefined)	> 200	69.2 µM	–
Nn1c(CNc2ccc(-c3nnc(Nc4ccc(Cl)cc4)n3N)cc2)nnc1Nc1ccc(Cl)cc1	> 200	67.6 µM	–
Cc1nc([N+](=O)[O-])cn1CC(=N)N	> 1120	> 1120 µM	–
COc1cc([C@@H]2c3cc4c(cc3[C@@H](OC3OC5CO[C@@H](c6cccs6)OC5C(O)C3O)[C@H]3COC(=O)[C@H]23)OCO4)cc(OC)c1O (some centres undefined)	> 0.398	0.00174 µM	–
Cc1ccc(N2CC(=O)N3CCCC(c4ccccc4)N3C(=O)C2)cc1 (centres undefined)	–	–	inactive
CC(=O)OC12c3ccccc3C(c3ccccc31)C1C(=O)N(Nc3ccccc3)C(=O)C12 (centres undefined)	> 200	> 200 µM	–
COc1ccc(NC(=O)CC(=O)N2N=C(C)C(N=Nc3ccc(S(=O)(=O)c4ccc(N=NC5C(=O)N(C(=O)CC(=O)Nc6ccc(OC)cc6)N=C5C)cc4)cc3)C2=O)cc1 (centres undefined)	> 100	95.5 µM	–
COc1c2c3c4c(c(OC)c(=O)c5c(O)c(Br)c(OC)c(c6c(OC)c(Br)c(O)c(c1=O)c36)c54)C(C(C)=O)=C(C)C2	> 13.8	1.45 µM	–
CCC[CH2][Sn]([CH2]CCC)=[N]S(=O)(=O)c1ccc(Cl)c(C)c1	> 0.2	0.0851 µM	–
